Measured values taken from patent EP0715517B1, “ESTRENE STEROIDS AS NEU[…] CHANGE IN HUMAN HY[…] AND RELATED PHARMACEUTICAL COMPOSITIONS” (priority 1993, dated 1994).
“Also recorded” adds a separate entry of the source.

How the values were obtained:
VNO [1] = test: Electro-vomeronasogram (EVG) (Example 25); format: in vivo, human; conditions: for EVG response to olfactants delivered to the VNO: male and female subjects, 400 fmoles, Fig. 7B; for EVG response in female subjects (in words): 30 female subjects (ages 20 - 45), Fig. 6B; for EVG average response (mean): male subjects (ages 20 to 38), 1 second pulses, p<0.01, Fig. 6A
Description: The following electrophysiological studies were performed in 60 clinically normal human volunteers of both sexes (30 male and 30 female) whose ages ranged from 20 to 45 years. No anesthetics were used, and female subjects were excluded if pregnant.
(§1) The stimulation and recording system consists of a "multifunctional miniprobe" described elsewhere (Monti-Bloch, L. and Grosser, B.l. (1991) "Effect of putative pheromones on the electrical activity of the human vomeronasal organ and olfactory epithelium," J. Steroid Biochem. Molec. Biol. 39:573-582.). The recording electrode is a 0.3 mm silver ball attached to a small (0.1 mm) silver wire insulated with Teflon© the surface of the electrode is first treated to produce a silver chloride interface, and is then covered with gelatin It is positioned within a small caliber Teflon© catheter (dia = […]) such that the tip of the electrode protrudes approximately 2 mm. The Teflon© catheter is 10 cm in length and constitutes the terminal extension for a multichannel delivery system which delivers a continuous air stream carrying discreet pulses of chemosensory stimuli. The air stream first passes into a small chamber and is bubbled through a solution containing either a vomeropherin or an olfactant in a diluent or the diluent alone. A solenoid is used to rapidly redirect the air stream from the chamber to a route which bypasses the chamber. This creates a discreet pulse of stimulant in the air stream. A second, outer Teflon® tube with a diameter of 2 mm surrounds the catheter-electrode assemblage, and its central end is connected to an aspirator that provides continuous suction of 3ml/s. This concentric arrangement of the outer suction tube allows the emitted chemosensory stimuli to be localized to an area we call a "minifield" (approx. dia = 1 mm), and it avoids diffusion of substances either to the area outside the intended stimulation site or into the respiratory system. The entire stimulating and recording assemblage may be positioned either on the neurosensory epithelium within the VNO, or on the surface of the olfactory or respiratory epithelium. Electro-vomeronasogram (EVG): Recordings are carried out in a quiet room with the subject supine; the multifunctional miniprobe is initially stabilized within the nasal cavity using a nasal retractor placed in the vestibule. Reference and ground electrodes consist of silver discs (8 mm), both of which are positioned on the glabella.
The entrance to the VNO, or vomeronasal pit, is identified by first dilating the nasal aperture and vestibule. A 6x magnifying binocular loupe with halogen illumination is then used to introduce the tip of the Teflon® catheter and recording electrode assemblage into the VNO opening where it is stabilized at an approximate depth of 1 mm within the vomeronasal passage. Optimal placement of the recording electrode is signaled after testing for an adequate depolarization in response to a test substance.
Electrical signals from the recording electrode are fed to a DC amplifier after which they are digitized, computer monitored, and stored. The peak-to-peak amplitude of the signals is measured, and the area under the depolarization wave is integrated, while continuously monitoring the signal both on the computer screen and on a digital oscilloscope. Artifacts produced by respiratory movements are deleted by training the subjects to practice mouth breathing with velopharyngeal closure. Chemosensory Stimulants: Olfactory test substances are cineole, and 1-carvone; vomeropherins are A, B, C, E and F. (Vomeropherins were supplied by Pherin Corporation, Menlo Park, California), Samples of vomeropherins In concentration of 25-800 fmoles are delivered in the continuous air stream for durations from 300 milliseconds to 1 second. Usually, intervals of 3 to 5 minutes separated each series of short test pulses. […]

[2] = system: olfactory epithelium (OE); test: Electro-olfactgram (EOG) (Example 25); format: in vivo, human; conditions: 20 subjects (10 males, 10 females); 200 fmoles vomeropherins, 400 fmoles olfactants; one second pulses; Fig. 7A
Description: as §1
Electrical signals from the recording electrode are fed to a DC amplifier after which they are digitized, computer monitored, and stored. The peak-to-peak amplitude of the signals is measured, and the area under the depolarization wave is integrated, while continuously monitoring the signal both on the computer screen and on a digital oscilloscope. […]
Effects of Vomeropherins on the EOG: The summated receptor potential from the olfactory epithelium (OE) was recorded in 20 subjects: 10 males and 10 females. […]

VNO [3] = test: Autonomic responses to Estrene stimulation of the VNO (Example 22); format: in vivo, human; conditions: 40 male subjects, 1 second pulse
Description: Various autonomic parameters were monitored while 1,3,5(10), 16-Estratetraen-3-yl-acetate was administered to 40 male subjects using the procedure described in Example 20. Propylene glycol was also administered as a control. The ligand was administered as a 1 second pulse. The change in autonomic function was first noted within 2 seconds and lasted for up to 45 seconds.

VNO [4] = test: Electrodermal activity (EDA) after VNO stimulation (Example 25); format: in vivo, human; conditions: p<0.01, n = 30; for skin resistance (electrodermal activity, EDA): male subjects, Fig. 6C
Description: (§2) Cortical evoked activity was induced by VNO stimulation with vomeropherins, and olfactory stimulation with odorants delivered in 300 ms air pulses. It was recorded using standard electroencephalographic (EEG) electrodes placed at positions Cz-A1 and Tz-A1 of the international […] system; the ground electrode was placed on the mastoid process. Electrodermal activity (EDA) was recorded using standard 8 mm silver electrodes in contact with palmar skin of the medial and ring fingers respectively, through a conductive gel interface. Skin temperature (ST) was recorded by a small (1.0 mm) thermistor probe placed in the right ear lobe. Peripheral arterial pulse (PAP) was monitored with a plethysmograph attached to the tip of the index finger. Respiratory frequency (RF) was measured with an adjustable strain gauge placed around the lower thorax. All electrical signals were DC amplified, digitized (MP-100, Biopac Systems) and continuously monitored utilizing a computer. Statistical Analysis: EVGs or EOGS, peak-to-peak changes and frequency changes of other parameters were measured and statistically analyzed. The significance of the results was determined by either using paired t-tests or analysis of variance (ANOVA). […] Recordings of the EVG were performed on 30 men and 30 women (ages 20 to 45). Vomeropherins were diluted and applied as 1 second pulses to the VNO with […] intervals between pulses when questioned, the subjects were not able to "smell" or otherwise consciously detect any of the vomeropherins.

VNO [5] = test: Skin temperature (ST) after VNO stimulation (Example 25); format: in vivo, human
Description: as §2

VNO [6] = test: Cortical evoked activity (EEG, alpha cortical activity) after VNO stimulation (Example 25); format: in vivo, human
Description: as §2
[…] […] Synchronization of the EEG was sustained for 1.5 to 2.7 minutes after application of a single pulse of active substance.

[7] = system: human vomeronasal organ (VNO); test: Local electrical potentials recorded from the VNO after localized gaseous stimulation (Example 20); format: in vivo; conditions: for VNO response, males compared with females (sexually dimorphic): Fig. 2B; for VNO response: males, about 25 pg of steroid-ligand puffed 1 to 2 seconds, response measured in mV x s, Fig. 2A
Description: A non-invasive method has been employed to record local electrical potentials from the human vomeronasal organ (VNO) and from the olfactory epithelium (OE). Localized gaseous stimulation was applied to both nasal structures at different instances using specially designed catheter/electrodes connected to a multichannel drug delivery system.
The study was performed on ten clinically normal (screened) volunteers - 2 males and 8 females, ranging in age from 18 to 85 years. The studies were conducted without general or local anesthetics.
The catheter/electrodes were designed to deliver a localized stimulus and simultaneously record the response. In the case of VNO recording, the right nasal fosa of the subject was explored using a nasoscope (nasal specula) and the vomeronasal opening was localized close to the intersection of the anterior edge of the vomer and the nasal floor. The catheter/electrode was gently driven through the VNO-opening and the electrode tip placed in the organ's lumen at 1 to 3 mm from the opening. The nasoscope was then removed. In the case of the OE, recording the procedure was similar except the positioning of the catheter/electrode was gently placed deep in the lateral part of the medial nasal duct, reaching the olfactory mucosa.
Localized gaseous stimulation was done through the catheter/electrode. A constant stream of clean, nonodorous, humidified air at room temperature was continuously passed through a channel of the stimulating system. The stimulating ligand substances were diluted in propylene glycol, mixed with the humidified air, and puffed for from 1 to 2 seconds through the catheter/electrode. It is estimated that this administration provides about 25 pg of steroid-ligand to the nasal cavity.

[8] = 30 male subjects, p<0.01, Fig. 6G
[9] = males, 200 fmoles, air pulses 300 ms to 1 sec, Fig. 6E

C=C(C)[C@@H]1CC=C(C)C(=O)C1 [1-carvone, reference compound]
EVG response to olfactants delivered to the VNO (VNO [1]): only a minor local response in the VNO; also recorded: do not induce a significant EVG response
EOG local response of the OE (in words) [2]: strong response in both men and women; also recorded: significant (p<0.01) local response

CC(=O)Oc1ccc2c(c1)CC[C@@H]1[C@@H]2CC[C@]2(C)C=CC[C@@H]12 [A, 1,3, 5(10),16-Estratetraen-3-yl acetate]
change in autonomic function first noted (onset) (VNO [3]): ≤ 2 s
change in autonomic function lasted (duration) (VNO [3]): up to 45 seconds
integrated receptor potential in the VNO (VNO [3]; compared to propylene glycol control, Fig. 4A): significant change
galvanic skin response (VNO [3]; compared to propylene glycol control, Fig. 4B): significant change
EVG response in female subjects (in words) (VNO [1]; 100 fmoles): small effect that was significantly different from F
EVG average response (mean) (VNO [1]; 100 fmoles): 11.4 mV
skin resistance (electrodermal activity, EDA) (VNO [4]): decreased skin resistance
skin temperature (ST) (VNO [5]; [8]): significant increase in skin temperature
alpha cortical activity (VNO [6]; [9]): significantly increased alpha cortical activity; also recorded: strongest effect
latency of increase in alpha cortical activity (VNO [6]; males, 200 fmoles, Fig. 6E): 270 to 380 ms

CC12CCC(CC1)C(C)(C)O2 [cineole, reference compound]
EVG response to olfactants delivered to the VNO (VNO [1]): only a minor local response in the VNO; also recorded: do not induce a significant EVG response
EOG local response of the OE (in words) [2]: strong response in both men and women; also recorded: significant (p<0.01) local response

C[C@]12CC[C@@H]3c4ccc(O)cc4CC[C@H]3[C@@H]1C[C@@H](O)[C@@H]2O [1,3,5(10)-Estratrien-3, 16α,17δ-triol]
VNO response, males compared with females (sexually dimorphic) [7]: approximately four times as strong in males as it is in females
VNO response [7]: strong VNO response

C[C@@]12C=CC[C@H]1[C@@H]1CCC3=C[C@H](O)CC[C@]3(C)[C@H]1CC2 [E, Androsta-4,16-dien-3α-ol]
EVG response in female subjects (in words) (VNO [1]; 100 fmoles): does not stimulate the VNO in female subjects
EOG local response of the OE (in words) [2]: stronger olfactory effect than does F; also recorded: significant (p<0.01) local response

C[C@@]12C=CC[C@H]1[C@@H]1CCc3cc(O)ccc3[C@H]1CC2 [C, 1,3,5(10),16-Estratetraen-3-ol]
VNO response, males compared with females (sexually dimorphic) [7]: approximately four times as strong in males as it is in females
VNO response [7]: significantly stronger VNO response in males than do the other compounds tested
EVG average response (mean) (VNO [1]; 100 fmoles): 6.4 mV
skin resistance (electrodermal activity, EDA) (VNO [4]): decreased skin resistance
skin temperature (ST) (VNO [5]; [8]): significant increase in skin temperature
alpha cortical activity (VNO [6]; [9]): significantly increased alpha cortical activity
latency of increase in alpha cortical activity (VNO [6]; males, 200 fmoles, Fig. 6E): 270 to 380 ms

C[C@@]12C=CC[C@H]1[C@@H]1CCC3=C[C@@H](O)CC[C@]3(C)[C@H]1CC2 [F, Androsta-4,16-dien-3β-ol]
EVG response in female subjects (in words) (VNO [1]; 100 fmoles): produced the most significant differences within the group
EVG response in the male VNO (in words) (VNO [1]; male subjects, 100 fmoles, Fig. 6A and Fig. 7): significantly reduced responses in the male VNO
decrease in EDA (VNO [4]; female subjects): greater decrease in EDA than A or C
skin temperature (ST) (VNO [5]; 30 female subjects, p<0.01, compared to A and C, Fig. 6H): significant increase in skin temperature
alpha cortical activity (VNO [6]; females, single pulse (200 fmoles), Fig. 6F): increased alpha cortical
